Experimental data: patent US7999137B2, “Pesticide bi-phenyl-amidine derivatives” (Bayer Cropscience AG, priority 2006, dated 2011)

Assay: logP by HPLC on reversed-phase column (C 18), EEC Directive 79/831 Annex V.A8
Assay type: physicochemical
Conditions: HPLC reversed-phase C 18; 40° C.; 0.1% aqueous formic acid and acetonitrile, linear gradient 10% to 90% acetonitrile
Protocol: Temperature: 40° C.; Mobile phases: 0.1% aqueous formic acid and acetonitrile; linear gradient from 10% acetonitrile to 90% acetonitrile.
Calibration was carried out using unbranched alkan-2-ones (comprising 3 to 16 carbon atoms) with known logP values (determination of the logP values by the retention times using linear interpolation between two successive alkanones).

SMILES | log p (HCOOH)
CCN(C)C=Nc1ccc(-c2cc(OC)c(OC)c(OC)c2)cc1C(F)(F)F [Compound 75] | 1.79
CCN(C)C=Nc1ccc(-c2ccc(C=NOC)cc2)cc1C(F)(F)F [Compound 76] | 2.01
CCN(C)C=Nc1ccc(-c2ccc(F)c(F)c2F)cc1C(F)(F)F [Compound 79] | 2.29
CCN(C)C=Nc1ccc(-c2ccc(F)c(C)c2)cc1C(F)(F)F [Compound 82] | 2.20
CCN(C)C=Nc1ccc(-c2ccc(F)c(F)c2)cc1C(F)(F)F [Compound 83] | 2.09
CCN(C)C=Nc1ccc(-c2ccc(F)c(F)c2)cc1F [Compound 84] | 1.68
CCN(C)C=Nc1ccc(-c2ccc(Cl)cc2Cl)cc1F [Compound 86] | 2.05
CCN(C)C=Nc1ccc(-c2ccc(OC)cc2)cc1F [Compound 88] | 1.59
CCN(C)C=Nc1ccc(-c2ccc(COC)cc2)cc1C(F)(F)F [Compound 93] | 1.76
CCN(C)C=Nc1ccc(-c2ccc(OC)c(OC)c2)cc1F [Compound 95] | 1.41
CCN(C)C=Nc1cc(OC)c(-c2ccc(C)cc2)cc1OC [Compound 98] | 1.89
CC(C)N(C)C=Nc1ccc(-c2cccc(Cl)c2)c(Cl)c1 [Compound 101] | 2.04
COc1ccc(-c2cc(OC)c(N=CN(C)C(C)C)cc2OC)cc1Cl [Compound 102] | 1.95
COc1cc(-c2ccc(C)cc2)c(OC)cc1N=CN(C)C(C)C [Compound 103] | 2.01
CCN(C)C=Nc1ccc(-c2ccc(Cl)c(C)c2)cc1C [Compound 108] | 2.14
CCN(C)C=Nc1cc(C)c(-c2ccc(Cl)c(C)c2)cc1C [Compound 109] | 2.27
CCN(C)C=Nc1ccc(-c2ccc(Cl)c(C)c2)cc1Cl [Compound 110] | 2.13
CCN(C)C=Nc1ccc(-c2ccc(Cl)cc2C)cc1Cl [Compound 113] | 2.03

SMILES | log p (HCOOH)
CCN(C)C=Nc1ccc(-c2ccc(OC)c(C)c2)cc1Cl [Compound 115] | 1.86
Cc1cc(-c2ccc(C(C)(C)C)cc2)c(C)cc1N=CN1CCOCC1 [Compound 118] | 2.53
Cc1cc(-c2ccc(Cl)cc2)c(C)cc1N=C1NCCCN1 [Compound 122] | 2.08
Cc1cc(-c2ccc(F)cc2)c(C)cc1N=C1NCCN1 [Compound 124] | 1.72
CCN(C)C=Nc1ccc(-c2ccc(C#N)cc2)cc1C [Compound 130] | 1.54
CCN(C)C=Nc1cc(C)c(-c2ccc(C#N)cc2)cc1C [Compound 136] | 1.54
CCN(C)C=Nc1cc(C)c(-c2ccc(C(F)(F)F)c(Cl)c2)cc1C [Compound 142] | 2.59
C=CCN(C)C=Nc1cc(C)c(-c2ccc(C(F)(F)F)c(Cl)c2)cc1C [Compound 144] | 2.70
Cc1cc(-c2ccc(C(F)(F)F)c(Cl)c2)c(C)cc1N=CN1CCCCC1 [Compound 145] | 2.78
CCN(C)C=Nc1cc(C)c(-c2ccc(C)c(Cl)c2)cc1C [Compound 146] | 2.37
C=CCN(C)C=Nc1cc(C)c(-c2ccc(C)c(Cl)c2)cc1C [Compound 148] | 2.48
Cc1ccc(-c2cc(C)c(N=CN3CCCCC3)cc2C)cc1Cl [Compound 149] | 2.53
CCN(C)C=Nc1cc(C)c(-c2ccc([Si](C)(C)C)cc2)cc1C [Compound 151] | 2.98
Cc1cc(-c2ccc([Si](C)(C)C)cc2)c(C)cc1N=CN1CCCCC1 [Compound 154] | 3.16
C=CCN(C)C=Nc1cc(C)c(-c2ccc(C(C)C)cc2)cc1C [Compound 157] | 2.60
Cc1cc(-c2ccc(C(C)C)cc2)c(C)cc1N=CN1CCCCC1 [Compound 158] | 2.60
Cc1cc(-c2ccc(C(C)(C)C)cc2)c(C)cc1N=CN(C)C(C)C [Compound 161] | 2.77

The next lines start with the values.

log p (HCOOH) | SMILES
2.48 | CCN(C)C=Nc1ccc(-c2ccc(OCc3ccccc3)cc2)cc1Cl [Compound 72]
1.65 | CCN(C)C=Nc1ccc(-c2ccc(COC)cc2)cc1Cl [Compound 73]
1.54 | CCN(C)C=Nc1ccc(-c2ccc(OC)c(OC)c2)cc1Cl [Compound 74]
2.24 | CCN(C)C=Nc1ccc(-c2ccc(C(C)=NOC)cc2)cc1C(F)(F)F [Compound 78]
2.24 | CCN(C)C=Nc1ccc(-c2ccc(Br)cc2)cc1C(F)(F)F [Compound 80]
2.57 | CCN(C)C=Nc1ccc(-c2ccc(Cl)c(Cl)c2)cc1C(F)(F)F [Compound 81]
2.39 | CCN(C)C=Nc1ccc(-c2ccc(Cl)cc2Cl)cc1C(F)(F)F [Compound 85]
1.78 | CCN(C)C=Nc1ccc(-c2ccc(OC)cc2)cc1C(F)(F)F [Compound 87]
2.65 | CCN(C)C=Nc1ccc(-c2ccc(Oc3ccccc3)cc2)cc1C(F)(F)F [Compound 89]
2.20 | CCN(C)C=Nc1ccc(-c2ccc(Oc3ccccc3)cc2)cc1F [Compound 90]
2.43 | CCN(C)C=Nc1ccc(-c2ccc(OCc3ccccc3)cc2)cc1C(F)(F)F [Compound 91]
2.27 | CCN(C)C=Nc1ccc(-c2ccc(OCc3ccccc3)cc2)cc1F [Compound 92]
1.71 | CCN(C)C=Nc1ccc(-c2ccc(OC)c(OC)c2)cc1C(F)(F)F [Compound 94]
1.92 | CCN(C)C=Nc1ccc(-c2cccc(Cl)c2)c(Cl)c1 [Compound 96]
1.83 | CCN(C)C=Nc1cc(OC)c(-c2ccc(OC)c(Cl)c2)cc1OC [Compound 97]
2.71 | CCN(C)C=Nc1cc(C)c(-c2ccc(C(C)(C)C)cc2)cc1Cl [Compound 106]
2.30 | CCN(C)C=Nc1cc(C)c(-c2ccc(Cl)c(C(F)(F)F)c2)cc1Cl [Compound 107]
2.23 | CCN(C)C=Nc1ccc(-c2ccc(Cl)cc2C)cc1C [Compound 111]
2.24 | CCN(C)C=Nc1cc(C)c(-c2ccc(Cl)cc2C)cc1C [Compound 112]
2.05 | CCN(C)C=Nc1cc(C)c(-c2ccc(OC)c(C)c2)cc1C [Compound 114]
2.69 | Cc1cc(-c2ccc(C(C)(C)C)cc2)c(C)cc1N=CN1CCCCC1 [Compound 116]
3.02 | Cc1cc(-c2ccc(C(C)(C)C)cc2)c(C)cc1N=CN1CCCCC1C (stereo not shown) [Compound 117]
2.79 | Cc1cc(-c2ccc(C(C)(C)C)cc2)c(C)cc1N=CN1CCCC1 [Compound 119]
2.53 | Cc1cc(-c2ccc(C(C)(C)C)cc2)c(C)cc1N=C1CCCN1 [Compound 120]

log p (HCOOH) | SMILES
1.81 | Cc1cc(-c2ccc(F)cc2)c(C)cc1N=C1NCCCN1 [Compound 123]
2.18 | CCN(C)C=Nc1cc(C)c(-c2ccc(Cl)cc2)cc1C [Compound 125]
1.84 | CCN(C)C=Nc1ccc(-c2ccc(F)cc2)cc1C [Compound 126]
2.01 | CCN(C)C=Nc1cc(C)c(-c2ccc(C)cc2)cc1C [Compound 131]
2.19 | CCN(C)C=Nc1cc(C)c(-c2ccc(C(F)(F)F)cc2)cc1C [Compound 132]
2.15 | CCN(C)C=Nc1cc(C)c(-c2cccc(Cl)c2)cc1C [Compound 133]
1.77 | CCN(C)C=Nc1cc(C)c(-c2ccccc2)cc1C [Compound 134]
2.13 | CCN(C)C=Nc1cc(C)c(-c2cccc3ccccc23)cc1C [Compound 135]
2.02 | CCN(C)C=Nc1cc(C)c(-c2ccc(F)c(Cl)c2)cc1C [Compound 137]
2.45 | Cc1cc(-c2ccc(C(C)(C)C)cc2)ccc1N=C1CCCCN1 [Compound 138]
2.55 | CCON=C(C)c1ccc(-c2cc(C)c(N=CN(C)CC)cc2C)cc1 [Compound 139]
2.60 | C=CCN(C)C=Nc1cc(C)c(-c2ccc(C(C)=NOCC)cc2)cc1C [Compound 140]
2.22 | CCON=C(C)c1ccc(-c2cc(C)c(N=CN3CCCCC3)cc2C)cc1 [Compound 141]
2.69 | CCCN(C)C=Nc1cc(C)c(-c2ccc(C(F)(F)F)c(Cl)c2)cc1C [Compound 143]
2.56 | CCCN(C)C=Nc1cc(C)c(-c2ccc(C)c(Cl)c2)cc1C [Compound 147]
2.37 | Cc1ccc(-c2cc(C)c(N=CN3CCCC3)cc2C)cc1Cl [Compound 150]
3.10 | CCCN(C)C=Nc1cc(C)c(-c2ccc([Si](C)(C)C)cc2)cc1C [Compound 152]
3.08 | C=CCN(C)C=Nc1cc(C)c(-c2ccc([Si](C)(C)C)cc2)cc1C [Compound 153]
2.34 | CCN(C)C=Nc1cc(C)c(-c2ccc(C(C)C)cc2)cc1C [Compound 155]
2.70 | CCCN(C)C=Nc1cc(C)c(-c2ccc(C(C)C)cc2)cc1C [Compound 156]
2.38 | CCN(C)C=Nc1cc(C)c(-c2ccc(C(C)(CC)OC)cc2)cc1C (stereo not shown) [Compound 159]
2.28 | CCN(C)C=Nc1cc(C)c(-c2ccc(OC(C)(C)C)cc2)cc1C [Compound 160]
2.84 | CCN(C)C=Nc1cc(C)c(-c2ccc(CC(C)C)cc2)cc1C [Compound 162]
2.92 | CCC(C)c1ccc(-c2cc(C)c(N=CN(C)CC)cc2C)cc1 (stereo not shown) [Compound 163]

Same assay, conditions: reversed-phase HPLC column (C 18); HPLC reversed-phase C 18; 40° C.; 0.1% aqueous formic acid and acetonitrile, linear gradient 10% to 90% acetonitrile; read-out: log p (HCOOH)

chromatographic logP | SMILES
2.6 | Cc1cc(-c2ccc(C(C)(C)C)cc2)c(C)cc1N=C1CCCCN1 [Compound 121, 4′-tert-butyl-2,5-dimethyl-N-[piperidin-2-ylidene]biphenyl-4-amine]

Same assay, conditions: reversed-phase HPLC column (C 18); pH 2.3; HPLC, 0.1% aqueous formic acid and acetonitrile, 40° C.; read-out: log P (pH 2.3)

chromatographic logP | SMILES
2.6 | Cc1cc(-c2ccc(C(C)(C)C)cc2)c(C)cc1N=C1CCCCN1 [Compound 121, 4′-tert-butyl-2,5-dimethyl-N-[piperidin-2-ylidene]biphenyl-4-amine]
